Here are results for 23 molecules from US8227498B2, “Inhibitors of glutaminyl cyclase” (Probiodrug AG, priority 2007, dated 2012).

This assay addresses glutaminyl cyclase (QC) (Homo sapiens, UniProt Q16769). The assay can be described thus: QC inhibitor assay (fluorometric/spectrophotometric QC activity assays with inhibitory compound added).

Molecules are shown by their SMILES.

Sequence of glutaminyl cyclase (QC) (Q16769 29-361): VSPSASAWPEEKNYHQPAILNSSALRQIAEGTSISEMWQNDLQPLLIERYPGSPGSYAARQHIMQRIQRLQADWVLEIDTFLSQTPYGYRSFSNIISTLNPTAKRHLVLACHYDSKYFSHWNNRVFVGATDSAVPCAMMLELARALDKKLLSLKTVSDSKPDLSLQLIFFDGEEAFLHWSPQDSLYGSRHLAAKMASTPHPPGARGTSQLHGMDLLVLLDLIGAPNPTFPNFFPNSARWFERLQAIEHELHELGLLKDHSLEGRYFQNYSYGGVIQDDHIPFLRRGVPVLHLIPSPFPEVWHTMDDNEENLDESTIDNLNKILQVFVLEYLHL
Method: All measurements were performed with a BioAssay Reader HTS-7000Plus for microplates (Perkin Elmer) at 30° C. QC activity was evaluated fluorometrically using H-Gln-βNA. The samples consisted of 0.2 mM fluorogenic substrate, 0.25 U pyroglutamyl aminopeptidase (Unizyme, Hørsholm, Denmark) in 0.2 M Tris/HCl, pH 8.0 containing 20 mM EDTA and an appropriately diluted aliquot of QC in a final volume of 250 μl. Excitation/emission wavelengths were 320/410 nm. The assay reactions were initiated by addition of glutaminyl cyclase. QC activity was determined from a standard curve of β-naphthylamine under assay conditions. One unit is defined as the amount of QC catalyzing the formation of 1 μmol pGlu-MNA from H-Gln-βNA per minute under the described conditions.
In a second fluorometric assay, QC was activity determined using H-Gln-AMC as substrate. Reactions were carried out at 30° C. utilizing the NOVOStar reader for microplates (BMG labtechnologies). The samples consisted of varying concentrations of the fluorogenic substrate, 0.1 U pyroglutamyl aminopeptidase (Qiagen) in 0.05 M Tris/HCl, pH 8.0 containing 5 mM EDTA and an appropriately diluted aliquot of QC in a final volume of 250 μl. Excitation/emission wavelengths were 380/460 nm. The assay reactions were initiated by addition of glutaminyl cyclase. […] The kinetic data were evaluated using GraFit sofware.
This novel assay was used to determine the kinetic parameters for most of the QC substrates. […] Samples consisted of the respective QC substrate, 0.3 mM NADH, 14 mM α-Ketoglutaric acid and 30 U/ml glutamate dehydrogenase in a final volume of 250 μl.
The initial velocities were evaluated and the enzymatic activity was determined from a standard curve of ammonia under assay conditions. All samples were measured at 30° C., using either the [sequence]luor Plus or the Sunrise (both from TECAN) reader for microplates. Kinetic data was evaluated using GraFit software.
For inhibitor testing, the sample composition was the same as described above, except of the putative inhibitory compound added. For a rapid test of QC-inhibition, samples contained 4 mM of the respective inhibitor and a substrate concentration at 1 KM. For detailed investigations of the inhibition and determination of Ki-values, influence of the inhibitor on the auxiliary enzymes was investigated first. […] The inhibitory constant was evaluated by fitting the set of progress curves to the general equation for competitive inhibition using GraFit software.

`CCOc1ccc(N/C(=N\C#N)NCCCn2cncc2C)cc1` [Example 6, 2-cyano(4-ethoxyphenyl)-3-(3-(5-methyl-1H-imidazol-1-yl)propyl)guanidine]: the IC50 – broadly, the point on the concentration scale where inhibition reaches its midpoint – was 1090 nM and the Ki (in general, a measure of affinity in units of concentration, obtained from inhibition or displacement) came out at 91 nM.

`Cc1cncn1CCCN/C(=N/C#N)Nc1ccc(C#N)cc1` [Example 4, 2-cyano(4-cyanophenyl)-3-(3-(5-methyl-1H-imidazol-1-yl)propyl)guanidine] displayed an IC50 of 1050 nM and a Ki of 186 nM.

As to `COc1cc(N/C(=N\C#N)NCCCn2cnc(C)c2)cc(OC)c1` [Example 18, 2-cyano(3,5-dimethoxyphenyl)-3-(3-(4-methyl-1H-imidazol-1-yl)propyl)guanidine], the IC50 was determined as 12300 nM.

On to `CCOc1ccc(N/C(=N\C#N)NCCCn2cnc(C)c2)cc1` [Example 17, 2-cyano(4-ethoxyphenyl)-3-(3-(4-methyl-1H-imidazol-1-yl)propyl)guanidine], for which the midpoint of inhibition, the IC50, lay at 5690 nM and the inhibition constant Ki turned out to be 1330 nM.

`COc1ccc(N/C(=N/C#N)NCCCn2cncc2C)cc1` [Example 15, 2-cyano(4-methoxyphenyl)-3-(3-(5-methyl-1H-imidazol-1-yl)propyl)guanidine]: the IC50 was determined as 790 nM and the Ki was found to be 74 nM.

Take `Cc1cncn1CCCN/C(=N\C#N)Nc1cccc2ccccc12` [Example 11, (3-(5-methyl-1H-imidazol-1-yl)propyl)-2-cyano-3-(naphthalen-1-yl)guanidine]: half-maximal inhibition (IC50) required 610 nM and affinity was put at a Ki of 103 nM.

`Cc1cncn1CCCN/C(=N\C#N)Nc1ccc(C(C)C)cc1` [Example 2] returned an IC50 of 550 nM and a Ki of 91 nM.

As to `Cc1cn(CCCN/C(=N/C#N)Nc2ccc3nsnc3c2)cn1` [Example 24, (benzo[c][1,2,5]thiadiazol-6-yl)-2-cyano-3-(3-(4-methyl-1H-imidazol-1-yl)propyl)guanidine], it took 12200 nM to reach half-maximal inhibition (IC50) and affinity was put at a Ki of 2210 nM.

`Cc1cncn1CCCN/C(=N\C#N)Nc1ccc2c(c1)OCO2` [Example 14, (benzo[d][1,3]dioxol-6-yl)-2-cyano-3-(3-(5-methyl-1H-imidazol-1-yl)propyl)guanidine] registered an IC50 of 590 nM and a Ki of 110 nM.

The molecule `Cc1cn(CCCN/C(=N\C#N)Nc2ccc(C(C)C)cc2)cn1` [Example 21, 2-cyano(4-isopropylphenyl)-3-(3-(4-methyl-1H-imidazol-1-yl)propyl)guanidine] showed an IC50 of 14900 nM and a Ki of 2310 nM.

On to `Cc1cncn1CCCN/C(=N\C#N)Nc1ccc2ccccc2c1` [Example 10, (3-(5-methyl-1H-imidazol-1-yl)propyl)-2-cyano-3-(naphthalen-2-yl)guanidine], for which the IC50 was 1090 nM and the Ki was 94 nM.

Molecule `CCc1ccc(N/C(=N/C#N)NCCCn2cncc2C)cc1` [Example 1, 2-cyano(4-ethylphenyl)-3-(3-(5-methyl-1H-imidazol-1-yl)propyl)guanidine] returned an IC50 of 620 nM and a Ki of 170 nM.

Molecule `COc1ccc(N/C(=N\C#N)NCCCn2cnc(C)c2)cc1` [Example 28, 2-cyano(4-methoxyphenyl)-3-(3-(4-methyl-1H-imidazol-1-yl)propyl)guanidine] yielded an IC50 of 14400 nM and a Ki of 2030 nM.

Regarding `Cc1cn(CCCN/C(=N/C#N)Nc2ccc(C#N)cc2)cn1` [Example 26, 2-cyano(4-cyanophenyl)-3-(3-(4-methyl-1H-imidazol-1-yl)propyl)guanidine], the IC50 was 30100 nM.

With `Cc1cn(CCCN/C(=N/C#N)Nc2ccc(-c3ccccc3)cc2)cn1` [Example 29, 2-cyano-1-[3-(4-methyl-1H-imidazol-1-yl)propyl]-4-phenylbenzene-1-guanidine], the IC50 was found to be 10400 nM and the Ki is 1580 nM.

`Cc1cn(CCCN/C(=N/C#N)Nc2ccc3ccccc3c2)cn1` [Example 30, 2-cyano(3-(4-methyl-1H-imidazol-1-yl)propyl)-3-(naphthalen-2-yl)guanidine] showed an IC50 of 12400 nM and a Ki of 1870 nM.

In turn, `Cc1cncn1CCCN/C(=N\C#N)Nc1ccc2nsnc2c1` [Example 12, (3-(5-methyl-1H-imidazol-1-yl)propyl)-3-(benzo[c][1,2,5]thiadiazol-6-yl)-2-cyanoguanidine] had an IC50 of 1340 nM and a Ki of 132 nM.

The molecule `Cc1cn(CCCN/C(=N/C#N)Nc2ccc(Cl)c(Cl)c2)cn1` [Example 27, (3,4-dichlorophenyl)-2-cyano-3-(3-(4-methyl-1H-imidazol-1-yl)propyl)guanidine] displayed an IC50 of 17100 nM and a Ki of 2600 nM.

Molecule `Cc1cn(CCCN/C(=N\C#N)Nc2cccc3ccccc23)cn1` [Example 23, 2-cyano(3-(4-methyl-1H-imidazol-1-yl)propyl)-3-(naphthalen-1-yl)guanidine] showed an IC50 of 13800 nM and a Ki of 1690 nM.

`Cc1cc(C)c(N/C(=N/C#N)NCCCn2cnc(C)c2)c(C)c1` [Example 20, 2-cyano(mesityl)-3-(3-(4-methyl-1H-imidazol-1-yl)propyl)guanidine] had an IC50 of 8500 nM and a Ki of 1280 nM.

For `Cc1cc(C)c(N/C(=N/C#N)NCCCn2cncc2C)c(C)c1` [Example 8, (3-(5-methyl-1H-imidazol-1-yl)propyl)-2-cyano-3-mesitylguanidine], the IC50 worked out at 624 nM and affinity was put at a Ki of 106 nM.

`CCc1ccc(N/C(=N/C#N)NCCCn2cnc(C)c2)cc1` [Example 22, 2-cyano(4-ethylphenyl)-3-(3-(4-methyl-1H-imidazol-1-yl)propyl)guanidine] returned an IC50 of 13900 nM and a Ki of 2370 nM.

`COc1cc(N/C(=N/C#N)NCCCn2cncc2C)cc(OC)c1` [Example 16, 2-cyano(3,5-dimethoxyphenyl)-3-(3-(5-methyl-1H-imidazol-1-yl)propyl)guanidine] showed an IC50 of 726 nM and a Ki of 125 nM.
